Among the data in PubChem BioAssay (NCI) are TGI and GI50 values, retold here.

Common to all, as to test: growth of human tumour cells (NCI), 48 h
The test system of assay [1] is SN12C renal.
The test system of assay [2] is UACC-62 melanoma.
Assay [3] relates to COLO 205 colon.
The test system of assay [4] is M14 melanoma.
The subject of assay [5] is UACC-257 melanoma.
For assay [6], the system named is A498 renal.
Assay [7] has as its system SK-MEL-2 melanoma.
Assay [8] has as its system HL-60(TB) leukemia.
For assay [9], the system named is HS 578T breast.
The subject of assay [10] is BT-549 breast.

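All cell lines were grown in 96-well plates and treated with compound for 48 hours. At the GI50, growth is halved. The concentration for full growth arrest is given as TGI.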 *1 amine or outer side, *2 acyl side, *3 side chain or, on linkers, in order; H or OH if unused. Where a SMILES comes first, the peptide text is derived from it. Bridges are numbered along the chain shown (N, C = ends). Roman numbers before positions name the chains, in order. X23 = CCCCCCCCCCCCCCC(=O)NC(CCCCN[*:2])C(=O)CN1CCCC1C(=O)[*:1] Where only a bound is given, the exact number is not on record here.

As for `O=C1NC2(NC(=O)C1=O)Nc1ccccc1S2`, the TGI is more than 61.4 µM in [1]; 63.8 µM in assay [2]; more than 54.9 µM in [3]; more than 100 µM in assay [4]; more than 100 µM in assay [5]; more than 100 µM in assay [6]. For the same compound, the TGI was more than 100 µM in [7] and more than 64.8 µM in assay [8].

In the case of `COC[C@@H]1Cc2cc(OC)c3c(c2[C@H](c2ccc(OC)c(OC)c2)[C@H]1COC)OCO3`, the TGI in assay [1], in assay [2], in assay [3], in [4], in assay [5] and in [6] was more than 100 µM throughout. Further, the TGI in assay [7] and in assay [8] was more than 100 µM each time.

Consider `CC(C)(C)C(=O)CC(=O)C(F)(F)C(F)(F)C(F)(F)F.CC(C)(C)C(=O)CC(=O)C(F)(F)C(F)(F)C(F)(F)F.CC(C)(C)C(=O)CC(=O)C(F)(F)C(F)(F)C(F)(F)F.[Er]`, for which the TGI in assay [1], in assay [2], in [3], in [4], in [9] and in assay [6] was more than 100 µM throughout. Further, the TGI in [10] and in assay [8] was more than 100 µM in each case. The GI50 in [6] and in [10] was more than 100 µM throughout.

As for `CC(C)(C)OC(=O)N1CCCC1C(=O)NCCNc1ccc(NCCNC(=O)C2CCCN2C(=O)OC(C)(C)C)c2c1C(=O)c1ccccc1C2=O` (centres undefined), the TGI in [2] was 23.8 µM; in [3], 27.5 µM; in [4], 29.8 µM; in assay [5], 29.6 µM; in assay [9] it was 69.5 µM; in assay [10] it was 25.7 µM. The figures for the TGI in assay [7] and in assay [8] were 38.5 µM and more than 100 µM, respectively.

Take `CN(CCNC(=O)c1cn(C)c2c1ccc1cc(Cl)ccc12)CCNC(=O)c1cn(C)c2c1ccc1cc(Cl)ccc12`: the TGI in assay [1] worked out at 3.37 µM; in assay [2], 10.8 µM; in assay [3] it was 2.57 µM; in assay [4] it was 3 µM; in assay [5], 67.4 µM; in assay [9] it was 4.25 µM. Moreover, the TGI in assay [6] was 14.5 µM; in assay [10] it was 21.9 µM; in assay [7], 13.7 µM; in assay [8], 10.4 µM.

For `CCCCCCCCCCCCCCC(=O)NC(CCCCNC(=O)C1CCCN1C(=O)C(CCCCN)NC(=O)C(CCCCN)NC(=O)C(CCCCN)NC(=O)C(CCCNC(=N)N)NC(=O)C(CCCCN)NC(=O)C(N)C(C)C)C(=O)CN1CCCC1C(=O)NCC(=O)NC(Cc1ccccc1)C(=O)N1CCCC1C(=O)NC(CO)C(=O)NC(Cc1ccc(O)cc1)C(=O)NC(CCCCN)C(=O)NC(CC(C)C)C(=O)NC(CCCNC(=N)N)C(=O)N1CCCC1C(=O)NCC(N)=O` (centres undefined) (I: GFPSYKLRPG-NH2 / II: H-VKRKKKP; linker I:N-II:C via X23; configuration not given here), the GI50 was 2.66 µM in assay [3]; 22.8 µM in assay [4]; 14 µM in assay [5]; 41.1 µM in [9]; 40.5 µM in assay [6]; 23.4 µM in assay [10]. The GI50 is 51.7 µM in assay [7] and 22.5 µM in assay [8]. Also, the TGI was 15.6 µM in [3]; 55.6 µM in assay [4]; 53.8 µM in assay [5]; more than 100 µM in assay [9]; more than 100 µM in [6]; 54.7 µM in assay [10]. Moreover, the TGI in assay [7] is more than 100 µM; in [8], 94.8 µM.

Take `O=[P+](O)c1cccs1`: the TGI in [1], in assay [2], in assay [3], in assay [4], in assay [6] and in assay [8] was more than 100 µM each time.

Turning to `CC(=O)C1=C(C)N(c2ccc(C)cc2)C2(O)C=CC(=O)C3=C(O)c4ccccc4C(=O)C312` (centres undefined), the TGI in [1] is 36.9 µM; in assay [2], 27.4 µM; in [3], more than 100 µM; in assay [4], more than 100 µM; in [5], 27.1 µM; in [9], more than 100 µM. Also, the TGI in [6] was 30.8 µM; in [10] it was 38.9 µM; in [7], 30.3 µM; in assay [8] it was more than 100 µM.

Take `CCOC(=O)c1c(SC)nc(-c2ccc(Cl)cc2)sc1=N`: the TGI in [1] was more than 100 µM; in assay [2] it was more than 100 µM; in [3], 44.9 µM; in assay [4], more than 100 µM; in assay [5], more than 100 µM; in [9], more than 100 µM. Further, the TGI was more than 100 µM in assay [6], more than 100 µM in [10], 52.7 µM in [7] and 78.7 µM in [8].

With `O=[N+]([O-])c1ccc(/C=N/n2c(CCc3n[nH]c(=S)n3/N=C/c3ccc([N+](=O)[O-])o3)n[nH]c2=S)o1`, the TGI in [4] is 36.1 µM; in assay [5] it was 83.8 µM; in [9], 62.2 µM; in assay [6], more than 100 µM; in assay [7], 42.9 µM; in assay [8] it was 97.7 µM.

In the case of `CC1C(O)[C@@]2(OC[C@@]34C(=O)CC5(O)[C@H](CCC6Cc7nc8c(nc7C[C@]65C)CC5CC[C@@H]6C7=C[C@H]9O[C@@]%10(O[C@@](C)(CO)C[C@@H]%10O)C(C)[C@@]9(O)[C@]7(C)[C@@H](O)CC6[C@]5(C)C8)C3=CC[C@H]4C2C)OC1(C)C` (some centres undefined), the TGI is more than 3.55 µM in assay [1]; 0.00489 µM in [2]; 0.361 µM in assay [3]; 0.0212 µM in assay [5]; 0.00105 µM in assay [6]; 0.0141 µM in [7]. In addition, the TGI in [8] worked out at 0.536 µM.
